Assays:
Type in all cases: in vivo
Matricaria inodora [1] = test: Post-emergence herbicidal action against MATIN; settings: visual assessment about 3 weeks after treatment
How it was run: (§1)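 Sandy loam, greenhouse; treatment 2–3 weeks after sowing, one-leaf stage. Aqueous suspension or emulsion from WP/EC sprayed on foliage (600–800 l/ha, 0.2% wetting agent). Readout: visual % action, ~3 weeks.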

Echinochloa crus-galli [2] = test: Pre-emergence herbicidal action against ECHCG; settings: 80 g/ha; visual score after 3 weeks vs untreated controls
How it was run: (§2)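 Seeds sown in sandy loam, soil-covered; compound sprayed on soil surface pre-emergence. Application: WP/EC, 600–800 l/ha, 0.2% wetting agent. Readout: visual % damage at 3 weeks.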

Amaranthus retroflexus [3] = test: Pre-emergence herbicidal action against AMARE; settings: visual score after 3 weeks vs untreated controls
How it was run: as §2

Digitaria sanguinalis [4] = test: Pre-emergence herbicidal action against DIGSA; settings: 80 g/ha
How it was run: as §2

Digitaria sanguinalis [5] = test: Post-emergence herbicidal action against DIGSA; settings: 20 g/ha
Procedure: Seeds of monocotyledonous and dicotyledonous weed and crop plants are laid out in sandy loam soil in wood-fiber pots, covered with soil and cultivated in a greenhouse under good growth conditions. 2 to 3 weeks after sowing, the test plants are treated at the one-leaf stage. The compounds of the invention, formulated in the form of wettable powders (WP) or as emulsion concentrates (EC), are then sprayed onto the green parts of the plants in the form of an aqueous suspension or emulsion at a water application rate equivalent to 600 to 800 l/ha, with addition of 0.2% wetting agent. After the test plants have been left to stand in the greenhouse under optimal growth conditions for about 3 weeks, the action of the preparations is assessed visually in comparison to untreated controls (herbicidal action in percent (%): 100% activity=the plants have died, 0% activity=like control plants). […] The tables below illustrate, in an illustrative manner, the post-emergence herbicidal action of the compounds of the invention, the herbicidal activity being stated in percent.

Matricaria inodora [6] = test: Pre-emergence herbicidal action against MATIN; settings: visual score after 3 weeks vs untreated controls
How it was run: as §2

Viola tricolor [7] = test: Pre-emergence herbicidal action against VIOTR; settings: 80 g/ha
How it was run: as §2

Amaranthus retroflexus [8] = test: Post-emergence herbicidal action against AMARE; settings: visual assessment about 3 weeks after treatment
How it was run: as §1

Abutilon theophrasti [9] = test: Pre-emergence herbicidal action against ABUTH; settings: visual score after 3 weeks vs untreated controls
How it was run: as §2

Setaria viridis [10] = test: Pre-emergence herbicidal action against SETVI; settings: 80 g/ha
How it was run: as §2

Alopecurus myosuroides [11] = test: Pre-emergence herbicidal action against ALOMY; settings: visual score after 3 weeks vs untreated controls
How it was run: as §2

Alopecurus myosuroides [12] = test: Post-emergence herbicidal action against ALOMY; settings: 20 g/ha
How it was run: as §1

Avena fatua [13] = test: Post-emergence herbicidal action against AVEFA; settings: 20 g/ha, visual assessment about 3 weeks after treatment
How it was run: as §1

Setaria viridis [14] = test: Post-emergence herbicidal action against SETVI; settings: 20 g/ha, visual assessment about 3 weeks after treatment
How it was run: as §1

Veronica persica [15] = test: Post-emergence herbicidal action against VERPE; settings: 20 g/ha, visual assessment about 3 weeks after treatment
How it was run: as §1

Viola tricolor [16] = test: Post-emergence herbicidal action against VIOTR
How it was run: as §1

Lolium rigidum = test: Pre-emergence herbicidal action against LOLRI; settings: 80 g/ha
From the text: (§3) Seeds of monocotyledonous and dicotyledonous weed plants and crop plants are laid out in sandy loam soil in wood-fiber pots and covered with soil. The compounds of the invention, formulated in the form of wettable powders (WP) or as emulsion concentrates (EC), are then applied to the surface of the covering soil in the form of an aqueous suspension or emulsion at a water application rate equivalent to 600 to 800 l/ha, with addition of 0.2% wetting agent. After the treatment, the pots are placed in a greenhouse and kept under good growth conditions for the trial plants. The damage to the test plants is scored visually after a test period of 3 weeks by comparison with untreated controls (herbicidal activity in percent (%): 100% activity=the plants have died, 0% activity=like control plants). […] The tables below illustrate, in an illustrative manner, the post-emergence herbicidal action of the compounds of the invention, the herbicidal activity being stated in percent.

Polygonum convolvulus = test: Pre-emergence herbicidal action against POLCO; settings: 80 g/ha
From the text: as §3

Echinochloa crus-galli [17] = test: Post-emergence herbicidal action against ECHCG; settings: 20 g/ha, visual assessment about 3 weeks after treatment
How it was run: as §1

Veronica persica [18] = test: Pre-emergence herbicidal action against VERPE; settings: 80 g/ha
How it was run: as §2

Abutilon theophrasti [19] = test: Post-emergence herbicidal action against ABUTH; settings: 20 g/ha
How it was run: as §1

Avena fatua [20] = test: Pre-emergence herbicidal action against AVEFA; settings: 80 g/ha; visual score after 3 weeks vs untreated controls
From the text: as §3

Pharbitis purpurea = test: Post-emergence herbicidal action against PHBPU; settings: visual assessment about 3 weeks after treatment
How it was run: as §1

SMILES: Cc1c(C(=O)Nc2nnnn2C)ccc(C(F)(F)F)c1C(=O)N(C1CC1)C1CC1 [Example 1-40]
- Post-emergence action against MATIN in % (Matricaria inodora [1]; 20 g/ha): 80%
- Pre-emergence action against ECHCG (Echinochloa crus-galli [2]): 80%
- Pre-emergence action against AMARE (Amaranthus retroflexus [3]; 20 g/ha): 100%
- Pre-emergence action against AMARE (Amaranthus retroflexus [3]; 80 g/ha): 100%
- Pre-emergence action against DIGSA (Digitaria sanguinalis [4]): 100%
- Post-emergence action against DIGSA in % (Digitaria sanguinalis [5]): 90%
- Pre-emergence action against MATIN (Matricaria inodora [6]; 80 g/ha): 90%
- Pre-emergence action against VIOTR (Viola tricolor [7]): 100%
- Post-emergence action against AMARE in % (Amaranthus retroflexus [8]; 5 g/ha): 80%
- Post-emergence action against AMARE in % (Amaranthus retroflexus [8]; 20 g/ha): 80%
- Pre-emergence action against ABUTH (Abutilon theophrasti [9]; 80 g/ha): 80%

SMILES: CCn1nnnc1NC(=O)c1ccc(C(F)(F)F)c(C(=O)N(C)C2CC2)c1Cl [Example 2-125]
- Post-emergence action against MATIN in % (Matricaria inodora [1]; 20 g/ha): 90%
- Pre-emergence action against SETVI (Setaria viridis [10]): 100%
- Pre-emergence action against AMARE (Amaranthus retroflexus [3]; 20 g/ha): 100%
- Pre-emergence action against AMARE (Amaranthus retroflexus [3]; 80 g/ha): 100%
- Pre-emergence action against DIGSA (Digitaria sanguinalis [4]): 100%
- Post-emergence action against DIGSA in % (Digitaria sanguinalis [5]): 90%
- Pre-emergence action against ALOMY (Alopecurus myosuroides [11]; 80 g/ha): 100%
- Pre-emergence action against MATIN (Matricaria inodora [6]; 80 g/ha): 100%
- Post-emergence action against ALOMY (Alopecurus myosuroides [12]): 80%
- Post-emergence action against AVEFA in % (Avena fatua [13]): 80%
- Pre-emergence action against VIOTR (Viola tricolor [7]): 100%
- Post-emergence action against AMARE in % (Amaranthus retroflexus [8]; 5 g/ha): 90%
- Post-emergence action against AMARE in % (Amaranthus retroflexus [8]; 20 g/ha): 90%
- Pre-emergence action against ABUTH (Abutilon theophrasti [9]; 20 g/ha): 90%
- Pre-emergence action against ABUTH (Abutilon theophrasti [9]; 80 g/ha): 100%

SMILES: CCn1nnnc1NC(=O)c1ccc(C(F)F)c(C(=O)N(C)C2CC2)c1Cl [Example 2-156]
- Post-emergence action against MATIN in % (Matricaria inodora [1]; 5 g/ha): 90%
- Post-emergence action against MATIN in % (Matricaria inodora [1]; 20 g/ha): 90%
- Post-emergence action against SETVI in % (Setaria viridis [14]): 80%
- Pre-emergence action against ECHCG (Echinochloa crus-galli [2]): 100%
- Pre-emergence action against SETVI (Setaria viridis [10]): 100%
- Post-emergence action against VERPE in % (Veronica persica [15]): 80%
- Post-emergence action against VIOTR in % (Viola tricolor [16]; 5 g/ha): 90%
- Post-emergence action against VIOTR in % (Viola tricolor [16]; 20 g/ha): 90%
- Pre-emergence action against LOLRI (Lolium rigidum): 80%
- Pre-emergence action against AMARE (Amaranthus retroflexus [3]; 20 g/ha): 100%
- Pre-emergence action against AMARE (Amaranthus retroflexus [3]; 80 g/ha): 100%
- Pre-emergence action against POLCO (Polygonum convolvulus): 90%
- Pre-emergence action against ALOMY (Alopecurus myosuroides [11]; 20 g/ha): 90%
- Pre-emergence action against ALOMY (Alopecurus myosuroides [11]; 80 g/ha): 90%
- Pre-emergence action against MATIN (Matricaria inodora [6]; 20 g/ha): 100%
- Pre-emergence action against MATIN (Matricaria inodora [6]; 80 g/ha): 100%
- Post-emergence action against ALOMY (Alopecurus myosuroides [12]): 90%
- Post-emergence action against ECHCG in % (Echinochloa crus-galli [17]): 90%
- Post-emergence action against AVEFA in % (Avena fatua [13]): 90%
- Pre-emergence action against VIOTR (Viola tricolor [7]): 100%
- Pre-emergence action against VERPE (Veronica persica [18]): 90%
- Post-emergence action against ABUTH (Abutilon theophrasti [19]): 90%
- Post-emergence action against AMARE in % (Amaranthus retroflexus [8]; 5 g/ha): 100%
- Post-emergence action against AMARE in % (Amaranthus retroflexus [8]; 20 g/ha): 100%
- Pre-emergence action against AVEFA (Avena fatua [20]): 90%
- Pre-emergence action against ABUTH (Abutilon theophrasti [9]; 20 g/ha): 100%
- Pre-emergence action against ABUTH (Abutilon theophrasti [9]; 80 g/ha): 100%
- Post-emergence action against PHBPU in % (Pharbitis purpurea; 5 g/ha): 80%
- Post-emergence action against PHBPU in % (Pharbitis purpurea; 20 g/ha): 80%
